In the NIST ThermoML archive (doi:10.1016/j.jct.2010.04.026):
Values joined by “and” are separate entries in the source; they are usually repeats but may differ in a detail not shown here. Identical values can stand only once.

Conditions: Crystal; for mass density: 295.1 K, 101.33 kPa, pellet size and mass; for vapor or sublimation pressure: Calculated from knudsen effusion weight loss

Nc1ccc2[nH]ncc2c1 [5-aminoindazole]
Conditions	mass density [kg/m3]	vapor or sublimation pressure
–	1400	–
358.12 K	–	8.43e-05 kPa and 8.3e-05 kPa
360.18 K	–	0.000101 kPa and 0.0001064 kPa and 0.000103 kPa
362.16 K	–	0.0001305 kPa and 0.0001265 kPa and 0.0001259 kPa
364.11 K	–	0.0001563 kPa and 0.0001589 kPa and 0.0001556 kPa
366.17 K	–	0.0001991 kPa and 0.0001966 kPa and 0.0001879 kPa
368.17 K	–	0.0002397 kPa and 0.0002332 kPa and 0.0002247 kPa
370.13 K	–	0.0002948 kPa and 0.0002986 kPa
372.18 K	–	0.0003483 kPa and 0.0003696 kPa and 0.0003499 kPa
374.15 K	–	0.0004435 kPa and 0.0004334 kPa and 0.0004198 kPa
376.13 K	–	0.0005419 kPa and 0.000534 kPa and 0.0005297 kPa
378.17 K	–	0.0006618 kPa and 0.000668 kPa and 0.0006232 kPa
380.16 K	–	0.0007639 kPa and 0.0007696 kPa and 0.0007519 kPa

Nc1ccc2cn[nH]c2c1 [6-aminoindazole]
Conditions	mass density [kg/m3]	vapor or sublimation pressure
–	1450	–
366.14 K	–	0.0001031 kPa and 0.0001023 kPa and 0.0001025 kPa
368.17 K	–	0.0001275 kPa and 0.0001257 kPa and 0.0001221 kPa
370.18 K	–	0.0001528 kPa and 0.0001513 kPa and 0.0001468 kPa
372.14 K	–	0.0001919 kPa and 0.0001878 kPa and 0.0001923 kPa
374.16 K	–	0.0002356 kPa and 0.000234 kPa and 0.0002228 kPa
376.17 K	–	0.0002875 kPa and 0.0002739 kPa
378.15 K	–	0.0003523 kPa and 0.0003592 kPa and 0.0003463 kPa
380.16 K	–	0.0004332 kPa and 0.000428 kPa and 0.0004138 kPa
382.17 K	–	0.0005244 kPa and 0.0005044 kPa and 0.0005114 kPa
384.15 K	–	0.0006281 kPa and 0.0006132 kPa and 0.0006304 kPa
386.16 K	–	0.0007813 kPa and 0.0007708 kPa and 0.0007396 kPa
388.17 K	–	0.0009109 kPa and 0.0008984 kPa and 0.0008878 kPa
